In ChEMBL document CHEMBL1201862, “PubChem BioAssay data set” (2004):
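Growth conditions: 96-well plates. Treatment: test compound, 48 hours, 5 concentrations. Analysis: linear interpolation between bracketing concentrations; unreached endpoints set to highest concentration. Abbreviation: GI50, concentration required for 50% inhibition of growth.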 The source made the active and inactive calls. Cut-off read from the data, not from the text of the source: active = GI50 up to about 1.1 µM and inactive = higher.

Columns and labels:
Test in all cases: NCI anticancer screen, dose series, 48 h
[1] = tested on: HCT-15
[2] = tested on: HT-29
[3] = tested on: SN12C
[4] = tested on: MCF7
[5] = tested on: NCI/ADR-RES
[6] = tested on: COLO 205
[7] = tested on: SK-MEL-5
[8] = tested on: SK-OV-3
[9] = tested on: M14
[10] = tested on: A549
[11] = tested on: U-251
[12] = tested on: HOP-92
[13] = tested on: NCI-H522
[14] = tested on: Hs-578T
[15] = tested on: HCC 2998
[16] = tested on: RPMI-8226
[17] = tested on: OVCAR-8
[18] = tested on: SNB-75
[19] = tested on: NCI-H226
[20] = tested on: HL-60

Row | SMILES | GI50 [1] [µM] | GI50 [2] | GI50 [3] | GI50 [4] | GI50 [5] | GI50 [6] | GI50 [7] | GI50 [8] | GI50 [9] | GI50 [10] | GI50 [11] | GI50 [12] | GI50 [13] | GI50 [14] | GI50 [15] | GI50 [16] | GI50 [17] | GI50 [18] | GI50 [19] | GI50 [20]
1 | CCOC(=O)c1nc2c3c(ncn2n1)Oc1c(c(-c2ccccc2)nn1-c1ccccc1)C3c1ccc(OC)c(OC)c1 (stereo not given) | > 100 | > 100 µM (inactive) | > 100 µM (inactive) | > 100 µM (inactive) | 57.7 µM (inactive) | > 100 µM (inactive) | 78.9 µM (inactive) | 92.9 µM (inactive) | > 100 µM (inactive) | 59.2 µM (inactive) | 31.3 µM (inactive) | 41.1 µM (inactive) | > 100 µM (inactive) | 12.4 µM (inactive) | > 100 µM (inactive) | 25.9 µM (inactive) | 25.9 µM (inactive) | 31.3 µM (inactive) |  | 
2 | C[C@@H]1C(O)CC[C@H](C)C12CC=CC2=O (stereo not given in full) | > 100 | > 100 µM (inactive) | > 100 µM (inactive) | > 100 µM (inactive) | > 100 µM (inactive) | > 100 µM (inactive) | > 100 µM (inactive) | > 100 µM (inactive) |  | > 100 µM (inactive) | > 100 µM (inactive) | > 100 µM (inactive) | > 100 µM (inactive) | > 100 µM (inactive) | > 100 µM (inactive) | > 100 µM (inactive) |  |  | > 100 µM (inactive) | > 100 µM (inactive)
3 | O=C(O)c1ccc(Nc2nc3cc(C(F)(F)F)ccc3n3cccc23)cc1 | 23.3 | 10.4 µM (inactive) |  | 35.6 µM (inactive) | 61.9 µM (inactive) | 22.5 µM (inactive) | 17.1 µM (inactive) | 40.1 µM (inactive) | 25.1 µM (inactive) | 30.5 µM (inactive) | 21.3 µM (inactive) | 64.6 µM (inactive) | 23.4 µM (inactive) | 44.4 µM (inactive) | 15.7 µM (inactive) | 12.5 µM (inactive) | 49.5 µM (inactive) | 24.1 µM (inactive) |  | 18.4 µM (inactive)
4 | S=C=NC1CCC(c2cc3ccccc3s2)(N2CCCCC2)CC1 (stereo not given) | 1.53 | 1.77 µM (inactive) | 1.82 µM (inactive) | 2.09 µM (inactive) | 1.84 µM (inactive) | 1.98 µM (inactive) | 1.56 µM (inactive) | 2.22 µM (inactive) | 1.86 µM (inactive) | 3.01 µM (inactive) |  | 1.68 µM (inactive) | 1.63 µM (inactive) | 2.08 µM (inactive) | 1.8 µM (inactive) | 1.46 µM (inactive) | 1.95 µM (inactive) | 1.87 µM (inactive) |  | 1.31 µM (inactive)
5 | Cc1cn(C2CC(O)C(Cn3nncc3Cn3nc(Br)c(=O)[nH]c3=O)O2)c(=O)[nH]c1=O (stereo not given) | > 100 |  | > 100 µM (inactive) | > 100 µM (inactive) | > 100 µM (inactive) | > 100 µM (inactive) | > 100 µM (inactive) | > 100 µM (inactive) | > 100 µM (inactive) | > 100 µM (inactive) | > 100 µM (inactive) | > 100 µM (inactive) | > 100 µM (inactive) | > 100 µM (inactive) | > 100 µM (inactive) | > 100 µM (inactive) | > 100 µM (inactive) |  | > 100 µM (inactive) | 
6 | CCN(CC)Cc1ccccc1CC(=O)N1c2ccccc2C(=O)Nc2cccnc21 | > 100 | > 100 µM (inactive) | > 100 µM (inactive) | 41.2 µM (inactive) | 59.6 µM (inactive) | 86.1 µM (inactive) | > 100 µM (inactive) | > 100 µM (inactive) | > 100 µM (inactive) | > 100 µM (inactive) | > 100 µM (inactive) | > 100 µM (inactive) | > 100 µM (inactive) | > 100 µM (inactive) | > 100 µM (inactive) | > 100 µM (inactive) | > 100 µM (inactive) |  | > 100 µM (inactive) | 46 µM (inactive)
7 | Nc1ccccc1C(=O)CCC1C(=O)NC(=S)NC1=O | > 100 | > 100 µM (inactive) |  | > 100 µM (inactive) | > 100 µM (inactive) | > 100 µM (inactive) | > 100 µM (inactive) | > 100 µM (inactive) | > 100 µM (inactive) | > 100 µM (inactive) | > 100 µM (inactive) | > 91.4 µM (inactive) | > 100 µM (inactive) | > 100 µM (inactive) | > 100 µM (inactive) | > 100 µM (inactive) | > 100 µM (inactive) | 43.8 µM (inactive) | > 100 µM (inactive) | > 100 µM (inactive)
8 | CCN(CC)CCO/N=C1/C=C2CCC3C(CC[C@@]4(C)C3CC[C@]4(C)O)[C@@]2(C)CC1 (stereo not given in full) | 2.29 | 1.82 µM (inactive) | 4.15 µM (inactive) | 3.95 µM (inactive) | 1.96 µM (inactive) | 4.16 µM (inactive) | 12.5 µM (inactive) | 14.3 µM (inactive) | 8.79 µM (inactive) | 7.36 µM (inactive) | 3.44 µM (inactive) | 4.9 µM (inactive) | 2.16 µM (inactive) | 5.12 µM (inactive) | 5.22 µM (inactive) | 4.28 µM (inactive) | 5.21 µM (inactive) | 2.89 µM (inactive) | 2.49 µM (inactive) | 
